In patent publication US20050037294A1, “Stabilized p-phenylenediamine-type photographic color developers in free base form” (priority 2000, published 2005):

Test: Saturation solubility of color developer free base in solvents and solvent/water mixtures (HPLC and NMR)
Details: for CD Free Base Conc. (saturation solubility): ambient temperature, 3% DEHA added; for Solubility in the solvents evaluated (in words): all solvents evaluated, room temperature
Method: Representative solvents were selected from each of the different classes of solvents: alcohols, glycols and glycol ethers. A small quantity of a representative preservative, 3% of N,N-dietheylhydroxylamine (DEHA), was added.

CD Free Base Conc. (saturation solubility) (2-Propanol/Water 10:90 (weight:weight)) [weight percent]	CD Free Base Conc. (saturation solubility) (2-Propanol/Water 50:50 (weight:weight)) [weight percent]	CD Free Base Conc. (saturation solubility) (2-Propanol/Water 90:10 (weight:weight)) [weight percent]	Solubility in 2-propanol (in words) (2-propanol)	CD Free Base Conc. (saturation solubility) (Ethanol/Water 10:90 (weight:weight)) [weight percent]	CD Free Base Conc. (saturation solubility) (Ethanol/Water 50:50 (weight:weight)) [weight percent]	CD Free Base Conc. (saturation solubility) (Ethanol/Water 90:10 (weight:weight)) [weight percent]	CD Free Base Conc. (saturation solubility) (Methanol/Water 10:90 (weight:weight)) [weight percent]	CD Free Base Conc. (saturation solubility) (Methanol/Water 50:50 (weight:weight)) [weight percent]	CD Free Base Conc. (saturation solubility) (Methanol/Water 90:10 (weight:weight)) [weight percent]	Solubility in the solvents evaluated (in words)	CD Free Base Conc. (saturation solubility) (solvent 2-Isopropoxyethanol) [weight percent]	CD Free Base Conc. (saturation solubility) (solvent 2-Methyl-1,3-Propanediol) [weight percent]	CD Free Base Conc. (saturation solubility) (solvent 2-Propanol) [weight percent]	CD Free Base Conc. (saturation solubility) (solvent 3-Methoxy-1-Butanol) [weight percent]	CD Free Base Conc. (saturation solubility) (solvent Diethylene Glycol) [weight percent]	CD Free Base Conc. (saturation solubility) (solvent Ethanol) [weight percent]	CD Free Base Conc. (saturation solubility) (solvent Methanol) [weight percent]	CD Free Base Conc. (saturation solubility) (solvent PEG-200) [weight percent]	CD Free Base Conc. (saturation solubility) (solvent PEG-300) [weight percent]	SMILES
0.8	9.2	7.8	low solubility	0.6	9.0	9.7	0.7	6.8	18.9	lesser solubility	8.6	3.3	1.8	9.3	15.2	5.4	23.6	16.9	16.7	CCN(CCNS(C)(=O)=O)c1ccc(N)c(C)c1 [CD-3 free base, 4-amino-3-methyl-N-ethyl-N-(2-methanesulfonamidoethyl)aniline]
–	–	–	–	–	–	–	–	–	–	fully miscible	–	–	–	–	–	–	–	–	–	CCN(CC)c1ccc(N)c(C)c1 [CD-2 free base, 4-amino-3-methyl-N,N-diethylaniline]
